Test results from patent US9232796B2, “Herbicidal compositions comprising 4-amino-3-chloro-5-fluoro-6-(4-chloro-2-fluoro-3-methoxyphenyl) pyridine-2-carboxylic acid or a derivative thereof and acetyl-CoA carboxylase (ACCase) inhibitors” (DOW AGROSCIENCES LLC, priority 2012, dated 2016).

Key:
CYPES = test: Example V (second) postemergence foliar-applied ternary mixtures, greenhouse, direct seeded rice weeds; assay type: in vivo, Cyperus esculentus L.
Method: (§1) The treated plants and control plants were placed in a greenhouse as described above and watered by sub-irrigation to prevent wash-off of the test compounds. After approximately 3 weeks, the condition of the test plants as compared with that of the untreated plants was determined visually and scored on a scale of 0 to 100 percent where 0 corresponds to no injury or growth inhibition and 100 corresponds to complete kill.
(§2) Colby's equation was used to determine the herbicidal effects expected from the mixtures (Colby, S. R. 1967. Calculation of the synergistic and antagonistic response of herbicide combinations. Weeds 15:20-22.).
(§3) The following equation was used to calculate the expected activity of mixtures containing three active ingredients, A, B, and C: Expected=A+B+C−((A×B+A×C+B×C)/100)+(A×B×C/10000)

IPOHE [1] = test: as above; assay type: in vivo, Ipomoea hederacea Jacq.
Method: as §1, §2, §3

ECHCO [2] = test: Example I postemergence foliar-applied, greenhouse, direct seeded rice weeds; assay type: in vivo, Echinochloa colona (L.) Link
Excerpt: (§4) Seeds or nutlets of the desired test plant species were planted in a soil matrix prepared by mixing a loam or sandy loam soil (e.g., 28.6 percent silt, 18.8 percent clay, and 52.6 percent sand, with a pH of about 5.8 and an organic matter content of about 1.8 percent) and calcareous grit in an 80 to 20 ratio. The soil matrix was contained in plastic pots with a volume of 1 quart and a surface area of 83.6 square centimeters (cm^2). When required to ensure good germination and healthy plants, a fungicide treatment and/or other chemical or physical treatment was applied. The plants were grown for 8-22 days in a greenhouse with an approximate 14 hr. photoperiod which was maintained at about 29° C. during the day and 26° C. during the night. Nutrients (Peters Excel® 15-5-15 5-Ca 2-Mg and iron chelate) were applied in the irrigation solution as needed and water was added on a regular basis. Supplemental lighting was provided with overhead metal halide 1000-Watt lamps as necessary. The plants were employed for testing when they reached the first through fourth true leaf stage.
(§5) Treatments consisted of the acid or esters of 4-amino-3-chloro-5-fluoro-6-(4-chloro-2-fluoro-3-methoxy-phenyl)pyridine-2-carboxylic acid (Compound A), each formulated as an SC (suspension concentrate), and various herbicidal components alone and in combination.
(§6) Other herbicidal components were applied on an acid equivalent (ae) or active ingredient (ai) basis and included acetyl coA carboxylase (ACCase)-inhibiting herbicides (cyclohexanedione and aryloxyphenoxypropionate chemical classes) cyhalofop-butyl formulated as Clincher® SF (285 gr ai/L EC), diclofop-methyl formulated as Hoelon® 3EC, fenoxaprop-p-ethyl+isoxadifen-ethyl formulated as RiceStar® HT (0.58 lb./gal EC), fenoxaprop-p-ethyl+mefenpyr diethyl formulated as Puma® IEC, metamifop formulated as Metamifop EC, haloxyfop-methyl formulated as Gallant Super®, fluazifop-p-butyl formulated as Fusilade® DX, quizalofop-p-ethyl formulated as Assure® II, profoxydim formulated as Aura® 20EC, clethodim applied as Intensity®, sethoxydim formulated as Poast®, and tralkoxydim formulated as Achieve®.
(§7) Treatment requirements were calculated based upon the rates being tested, the concentration of active ingredient or acid equivalent in the formulation, and a 12 mL application volume at a rate of 187 L/ha.
(§8) For treatments comprised of formulated compounds, measured amounts of compounds were placed individually in 25 mL glass vials and diluted in a volume of 1.25% (v/v) Agri-Dex® crop oil concentrated to obtain 12× stock solutions. […] Application solutions were prepared by adding an appropriate amount of each stock solution (e.g., 1 mL) and diluted to the appropriate final concentrations with the addition of 10 mL of an aqueous mixture of 1.25% (v/v) crop oil concentrate so that the final spray solutions contained 1.25+/−0.05% (v/v) crop oil concentrate.
(§9) All stock solutions and applications solutions were visually inspected for compound compatibility prior to application. Spray solutions were applied to the plant material with an overhead Mandel track sprayer equipped with a 8002E nozzles calibrated to deliver 187 L/ha over an application area of 0.503 m^2 at a spray height of 18 to 20 inches (46 to 50 cm) above average plant canopy height. Control plants were sprayed in the same manner with the solvent blank.
as §1, with “kill. […]” for “kill.”

IPOHE [3] = test: as above; assay type: in vivo, Ipomoea hederacea Jacq.
Excerpt: as §4, §5, §6, §7, §8, §9
as §1, with “kill. […]” for “kill.”

SCPJU = test: as above; assay type: in vivo, Schoenoplectus juncoides (Roxb.) Palla
Excerpt: as §4, §5, §6, §7, §8, §9
as §1, with “kill. […]” for “kill.”

KCHSC = test: Example IV postemergence foliar-applied, greenhouse, cereal crops weeds; assay type: in vivo, Kochia scoparia (L.) Schrad.
Method: (§10) Seeds of the desired test plant species were planted in Sun Gro MetroMix® 306 planting mixture, which typically has a pH of 6.0 to 6.8 and an organic matter content of about 30 percent, in plastic pots with a surface area of 103.2 square centimeters (cm^2). […] The plants were grown for 7-36 days in a greenhouse with an approximate 14 hour photoperiod which was maintained at about 18° C. during the day and about 17° C. during the night. Nutrients and water were added on a regular basis and supplemental lighting was provided with overhead metal halide 1000-Watt lamps as necessary. The plants were employed for testing when they reached the second or third true leaf stage.
(§11) Treatments consisted of the benzyl ester of 4-amino-3-chloro-5-fluoro-6-(4-chloro-2-fluoro-3-methoxy-phenyl)pyridine-2-carboxylic acid (Compound A), formulated as an SC, a second cereal herbicide alone and then both in combination.
(§12) Other herbicidal components were applied on an active ingredient basis and included acetyl-CoA carboxylase (ACCase)-inhibiting herbicides clodinafop-propargyl, fenoxaprop-P-ethyl, pinoxaden and tralkoxydim.
(§13) Measured aliquots of benzyl ester of 4-amino-3-chloro-5-fluoro-6-(4-chloro-2-fluoro-3-methoxy-phenyl)pyridine-2-carboxylic acid (Compound A) were placed in 25 milliliter (mL) glass vials and diluted in a volume of 1.25% (v/v) Agri-Dex® crop oil concentrate to obtain stock solutions. Compound requirements are based upon a 12 mL application volume at a rate of 187 liters per hectare (L/ha). […] Formulated compounds were applied to the plant material with an overhead Mandel track sprayer equipped with an 8002E nozzle calibrated to deliver 187 L/ha over an application area of 0.503 square meters (m^2) at a spray height of 18 inches (46 cm) above average plant canopy. Control plants were sprayed in the same manner with the solvent blank.
as §1, with “20-22 days,” for “approximately 3 weeks,”, “control” for “untreated”, “injury” for “injury or growth inhibition”
as §2
(§14) The following equation was used to calculate the expected activity of mixtures containing two active ingredients, A and B: Expected=A+B−(A×B/100)

PHAMI = test: as above; assay type: in vivo, Phalaris minor Retz.
Method: as §10, §11, §12, §13
as §1, with “20-22 days,” for “approximately 3 weeks,”, “control” for “untreated”, “injury” for “injury or growth inhibition”
as §2, §14

ECHCG = test: Example V (second) postemergence foliar-applied ternary mixtures, greenhouse, direct seeded rice weeds; assay type: in vivo, Echinochloa crus-galli (L.) Beauv.
Excerpt: Seeds or nutlets of the desired test plant species were planted in a soil matrix prepared by mixing a sandy loam or loam soil (e.g., 32 percent silt, 23 percent clay, and 45 percent sand, with a pH of about 6.5 and an organic matter content of about 1.9 percent) and calcareous grit in an 80 to 20 ratio. The soil matrix was contained in plastic pots with a volume of 1 quart and a surface area of 83.6 square centimeters (cm^2). When required to ensure good germination and healthy plants, a fungicide treatment and/or other chemical or physical treatment was applied. The plants were grown for 8-22 days in a greenhouse with an approximate 14 hr. photoperiod which was maintained at about 29° C. during the day and 26° C. during the night. Nutrients (Peters Excel® 15-5-15 5-Ca 2-Mg and iron chelate) were applied in the irrigation solution as needed and water was added on a regular basis. Supplemental lighting was provided with overhead metal halide 1000-Watt lamps as necessary. The plants were employed for testing when they reached the first through fourth true leaf stage.
Treatments consisted of the benzyl ester of 4-amino-3-chloro-5-fluoro-6-(4-chloro-2-fluoro-3-methoxy-phenyl)pyridine-2-carboxylic acid (Compound A), formulated as an SC (suspension concentrate), an ACCase inhibitor, and a third herbicidal component, each applied alone and in ternary combination. Forms of compound A were applied on an acid equivalent basis.
The ACCase inhibitor component was applied on an active ingredient basis and included cyhalofop-R-butyl formulated as Clincher® SF, fenoxaprop-p-ethyl formulated as RiceStar® HT, and profoxydim formulated as Aura® 20EC. Other herbicidal components were applied on an active ingredient or acid equivalent basis depending on the compound and included penoxsulam formulated as Grasp® SC, bentazon sodium formulated as Basagran®, triclopyr […] (TEA) salt formulated as Grandstand® R, bispyribac sodium formulated as Regiment® 80WP, imazamox ammonium formulated as Beyond®, benzobicyclon, quinclorac formulated as Facet® 75DF, glyphosate dimethylammonium (DMA) salt formulated as Durango® DMA, glufosinate ammonium formulated as Ignite® 280, fentrazamide formulated as an emulsifiable concentrate (EC), propyrisulfuron formulated as Zeta One®, and indanofan (technical grade material).
as §7
as §8, with “concentrate” for “concentrated”, “9” for “10”, “1.25%” for “1.25+/−0.05%”
As required, additional water and/or 97:3 v/v acetone/DMSO was added to individual application solutions so that the final acetone and DMSO concentrations of the application solutions being compared were 8.1% and 0.25%, respectively.
as §9, with “18” for “18 to 20”, “(46” for “(46 to 50”
The treated plants and control plants were placed in a greenhouse as described above and watered by sub-irrigation to prevent wash-off of the test compounds. […]

LEFCH = test: as above; assay type: in vivo, Leptochloa chinensis (L.) Nees
Method: as §1, §2, §3

ECHCO [4] = test: as above; assay type: in vivo, Echinochloa colona (L.) Link; settings: 115 gai/ha
Method: as §1, §2, §3

APESV = test: Example IV postemergence foliar-applied, greenhouse, cereal crops weeds; assay type: in vivo, Apera spica-venti (L.) Beauv.
Method: as §10, §11, §12, §13
as §1, with “20-22 days,” for “approximately 3 weeks,”, “control” for “untreated”, “injury” for “injury or growth inhibition”
as §2, §14

COCc1cnc(C2=NC(C)(C(C)C)C(=O)N2)c(C(=O)O)c1 (stereo not drawn) [Imazamox ammonium]
Visual Weed Control (%) - 21 DAA CYPES Obs (CYPES; 12 gae/ha): 60%
Visual Weed Control (%) - 21 DAA IPOHE Obs (IPOHE [1]; 6 gae/ha): 65%

CCc1cc(C)cc(CC)c1-c1c(OC(=O)C(C)(C)C)n2n(c1=O)CCOCC2 [Pinoxaden, 8-(2,6-diethyl-4-methylphenyl)-1,2,4,5-tetrahydro-7-oxo-7H-pyrazolo[1,2-d][1,4,5]oxadiazepin-9-yl 2,2-dimethylpropanoate]
Visual Weed Control (%) - 21 DAA ECHCO Obs (ECHCO [2]; 15 gai/ha): 15%
Visual Weed Control (%) - 21 DAA ECHCO Obs (ECHCO [2]; 30 gai/ha): 85%
Visual Weed Control (%) - 21 DAA ECHCO Obs (ECHCO [2]; 60 gai/ha): 95%
Visual Weed Control (%) - 21 DAA IPOHE Obs (IPOHE [3]; 15 gai/ha): 10%
Visual Weed Control (%) - 21 DAA IPOHE Obs (IPOHE [3]; 30 gai/ha): 10%
Visual Weed Control (%) - 21 DAA IPOHE Obs (IPOHE [3]; 60 gai/ha): 0%
Visual Weed Control (%) - 21 DAA SCPJU Obs (SCPJU; 15 gai/ha): 0%
Visual Weed Control (%) - 21 DAA SCPJU Obs (SCPJU; 30 gai/ha): 0%
Visual Weed Control (%) - 21 DAA SCPJU Obs (SCPJU; 60 gai/ha): 0%
Visual Weed Control (%) - 21 DAA KCHSC Obs (KCHSC; Pinoxaden 15 gai/ha): 0%
Visual Weed Control (%) - 21 DAA KCHSC Obs (KCHSC; Pinoxaden 30 gai/ha): 15%
Visual Weed Control (%) - 21 DAA PHAMI Obs (PHAMI; Pinoxaden 15 gai/ha): 78%
Visual Weed Control (%) - 21 DAA PHAMI Obs (PHAMI; Pinoxaden 30 gai/ha): 94%

O=C(O)c1c(Cl)ccc2cc(Cl)cnc12 [Quinclorac]
Visual Weed Control (%) - 21 DAA CYPES Obs (CYPES; 280 gai/ha): 0%
Visual Weed Control (%) - 21 DAA ECHCG Obs (ECHCG; 280 gai/ha): 10%

COc1cc(OC)nc(Oc2cccc(Oc3nc(OC)cc(OC)n3)c2C(=O)O)n1 [Bispyribac sodium]
Visual Weed Control (%) - 21 DAA CYPES Obs (CYPES; 28 gai/ha): 20%
Visual Weed Control (%) - 21 DAA IPOHE Obs (IPOHE [1]; 28 gai/ha): 60%

CNC.O=C(O)CNCP(=O)(O)O [Glyphosate DMA]
Visual Weed Control (%) - 21 DAA LEFCH Obs (LEFCH; 420 gai/ha): 45%
Visual Weed Control (%) - 21 DAA ECHCG Obs (ECHCG; 105 gae/ha): 23%

CP(=O)(O)CCC(N)C(=O)O (stereo not drawn) [Glufosinate ammonium]
Visual Weed Control (%) - 21 DAA ECHCO Obs (ECHCO [4]): 0%

CCC1(CC2(c3cccc(Cl)c3)CO2)C(=O)c2ccccc2C1=O (stereo not drawn) [Indanofan]
Visual Weed Control (%) - 22 DAA LEFCH Obs (LEFCH; 72.5 gai/ha): 30%
Visual Weed Control (%) - 22 DAA LEFCH Obs (LEFCH; 145 gai/ha): 38%

CCOC(=O)[C@@H](C)Oc1ccc(Oc2nc3ccc(Cl)cc3o2)cc1 [Fenoxaprop-P-ethyl, ethyl(2R)-2-[4-[(6-chloro-2-benzoxazolyl)oxy]phenoxy]propanoate]
Visual Weed Control (%) - 21 DAA APESV Obs (APESV; Fenoxaprop-P-ethyl 23 gai/ha): 50%
Visual Weed Control (%) - 21 DAA APESV Obs (APESV; Fenoxaprop-P-ethyl 46 gai/ha): 83%
Visual Weed Control (%) - 21 DAA KCHSC Obs (KCHSC; Fenoxaprop-P-ethyl 23 gai/ha): 0%
Visual Weed Control (%) - 21 DAA KCHSC Obs (KCHSC; Fenoxaprop-P-ethyl 46 gai/ha): 0%
Visual Weed Control (%) - 21 DAA PHAMI Obs (PHAMI; Fenoxaprop-P-ethyl 23 gai/ha): 10%
Visual Weed Control (%) - 21 DAA PHAMI Obs (PHAMI; Fenoxaprop-P-ethyl 46 gai/ha): 45%
